Like-named read-outs stand apart in the source and are kept apart here.
Tested on: NLRP3
Experiment: IL-1β secretion assay in PMA-differentiated, LPS/nigericin-stimulated THP-1 cells (384-well, ELISA read-out)
Type: cell-based, human
Summary of the method: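 THP-1 cells differentiated with PMA (5 ng/mL, 40 h), primed in serum-free medium with 25 ng/mL LPS for 2 h, treated with compounds 1 h (0.5% DMSO), then stimulated with nigericin for 2 h at 37 °C. Supernatant IL-1β measured by ELISA; responses normalized to LPS+5 μM nigericin and LPS-only controls.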

[1] = Homo sapiens, THP-1, IL-1β secretion, PMA-differentiated THP-1 cells, LPS then nigericin stimulation, ELISA read at 450 nm, read-out: Activity
[2] = Homo sapiens, THP-1, Table 4, IL-1β secretion, LPS/nigericin-stimulated THP-1 cells, read-out: IC50

O=C(CN1CC2(CC2)c2cc(OC(F)F)ccc2C1=O)Nc1ncccn1 [Example 33, N-(pyrimidin-2-yl)-2-[6-(difluoromethoxy)-1-oxospiro[3H-isoquinoline-4,1′-cyclopropane]-2-yl]acetamide]
IC50 [1]: < 10 µM
IC50 [2]: 1.28 µM

O=C(CN1CC2(CC2)c2cc(C3CC3)ccc2C1=O)Nc1ncc(Cl)cn1 [Example 34, N-(5-chloropyrimidin-2-yl)-2-(6-cyclopropyl-1-oxo-spiro[3H-isoquinoline-4,1′-cyclopropane]-2-yl)acetamide]
IC50 [1]: < 10 µM
IC50 [2]: 0.137 µM

O=C(CN1CC2(CC2)c2c(ccc(C(F)(F)F)c2F)C1=O)Nc1ncc(F)cn1 [Example 35, 2-[5-fluoro-1-oxo-6-(trifluoromethyl)spiro[3H-isoquinoline-4,1′-cyclopropane]-2-yl]-N-(5-fluoropyrimidin-2-yl)acetamide]
IC50 [1]: < 10 µM
IC50 [2]: 0.366 µM

O=C(CN1CC2(CC2)c2cc(Br)ccc2C1=O)Nc1ccc(OC(F)F)cn1 [Example 36, 2-(6-bromo-1-oxo-spiro[3H-isoquinoline-4,1′-cyclopropane]-2-yl)-N-[5-(difluoromethoxy)-2-pyridyl]acetamide]
IC50 [1]: < 10 µM
IC50 [2]: 2.72 µM

O=Cc1cnc(NC(=O)CN2CC3(CC3)c3cc(Br)ccc3C2=O)c(F)c1 [Example 37, 2-(6-bromo-1-oxo-spiro[3H-isoquinoline-4,1′-cyclopropane]-2-yl)-N-(3-fluoro-5-formyl-2-pyridyl)acetamide]
IC50 [1]: < 10 µM
IC50 [2]: 1.32 µM

O=C(CN1CC2(CC2)c2cc(Br)ccc2C1=O)Nc1ncc(F)cc1F [Example 38, 2-(6-bromo-1-oxo-spiro[3H-isoquinoline-4,1′-cyclopropane]-2-yl)-N-(3,5-difluoro-2-pyridyl)acetamide]
IC50 (IL-1β secretion, PMA-differentiated THP-1 cells, LPS then nigericin stimulation, ELISA read at 450 nm, read-out: Activity): < 10 µM
IC50 (Table 4, IL-1β secretion, LPS/nigericin-stimulated THP-1 cells, read-out: IC50): 0.449 µM

O=C(CN1CC2(CC2)c2c(ccc(Br)c2F)C1=O)Nc1ncccn1 [Example 39, 2-(6-bromo-5-fluoro-1-oxo-spiro[3H-isoquinoline-4,1′-cyclopropane]-2-yl)-N-(pyrimidin-2-yl)acetamide]
IC50 [1]: < 10 µM
IC50 [2]: 0.09 µM

O=C(CN1CC2(CC2)c2c(F)cccc2C1=O)Nc1ncccn1 [Example 40, 2-(5-fluoro-1-oxo-spiro[3H-isoquinoline-4,1′-cyclopropane]-2-yl)-N-(pyrimidin-2-yl)acetamide]
IC50 [1]: < 10 µM
IC50 [2]: 8.78 µM

O=C(CN1CC2(CC2)c2c(ccc(Br)c2F)C1=O)Nc1ncc(F)cn1 [Example 41, 2-(6-bromo-5-fluoro-1-oxo-spiro[3H-isoquinoline-4,1′-cyclopropane]-2-yl)-N-(5-fluoropyrimidin-2-yl)acetamide]
IC50 [1]: < 10 µM
IC50 [2]: 0.068 µM

O=C(CN1CC2(CC2)c2c(F)cccc2C1=O)Nc1ncc(F)cn1 [Example 42, 2-(5-fluoro-1-oxo-spiro[3H-isoquinoline-4,1′-cyclopropane]-2-yl)-N-(5-fluoropyrimidin-2-yl)acetamide]
IC50 [1]: < 10 µM
IC50 [2]: 5.24 µM

O=C(CN1CC2(CC2)c2cc(Br)ccc2C1=O)Nc1ccc2cn[nH]c2c1 [Example 43, 2-(6-bromo-1-oxo-spiro[3H-isoquinoline-4,1′-cyclopropane]-2-yl)-N-(1H-indazol-6-yl)acetamide]
IC50 [1]: < 10 µM
IC50 [2]: 0.368 µM

O=C(CN1CC2(CC2)c2cc(Br)ccc2C1=O)Nc1ccc2cc[nH]c2c1 [Example 44, 2-(6-bromo-1-oxospiro[3H-isoquinoline-4,1′-cyclopropane]-2-yl)-N-(1H-indol-6-yl)acetamide]
IC50 [1]: < 10 µM
IC50 [2]: 1.26 µM

O=C(CN1CC2(CC2)c2cc(Br)ccc2C1=O)NC1CCc2cn[nH]c2C1 (stereo not shown) [Example 45, 2-(6-bromo-1-oxospiro[3H-isoquinoline-4,1′-cyclopropane]-2-yl)-N-(4,5,6,7-tetrahydro-1H-indazol-6-yl)acetamide]
IC50 [1]: < 10 µM
IC50 [2]: 6.25 µM

CC1(C)CN(CC(=O)N[C@H]2C[C@@](C)(O)C2)C(=O)c2ccc(Br)cc21 [Example 46, 2-(6-bromo-4,4-dimethyl-1-oxo-3H-isoquinolin-2-yl)-N-(cis-3-hydroxy-3-methyl-cyclobutyl)acetamide]
IC50 [1]: < 10 µM
IC50 [2]: 1.54 µM

CC(C)(O)CCNC(=O)CN1CC2(CC2)c2cc(Br)ccc2C1=O [Example 47, 2-(6-bromo-1-oxospiro[3H-isoquinoline-4,1′-cyclopropane]-2-yl)-N-(3-hydroxy-3-methylbutyl)acetamide]
IC50 [1]: < 10 µM
IC50 [2]: 4.7 µM

O=C(CN1CC2(CC2)c2cc(Br)ccc2C1=O)Nc1ncc(-n2cccn2)cn1 [Example 48, 2-(6-bromo-1-oxospiro[3H-isoquinoline-4,1′-cyclopropane]-2-yl)-N-(5-pyrazol-1-ylpyrimidin-2-yl)acetamide]
IC50 [1]: < 10 µM
IC50 [2]: 0.238 µM

CC(C)(O)C12CC(NC(=O)CN3CC4(CC4)c4cc(Br)ccc4C3=O)(C1)C2 [Example 49, 2-(6-bromo-1-oxo-spiro[3H-isoquinoline-4,1′-cyclopropane]-2-yl)-N-[3-(1-hydroxy-1-methyl-ethyl)-1-bicyclo[1.1.1]pentanyl]acetamide]
IC50 [1]: < 10 µM
IC50 [2]: 3.01 µM

CC(C)(O)C1CC(NC(=O)CN2CC3(CC3)c3cc(Br)ccc3C2=O)C1 (stereo not shown) [Example 50, 2-(6-bromo-1-oxospiro[3H-isoquinoline-4,1′-cyclopropane]-2-yl)-N-[3-(2-hydroxypropan-2-yl)cyclobutyl]acetamide]
IC50 [1]: < 10 µM
IC50 [2]: 6.44 µM

O=C(CN1CC2(CC2)c2cc(Br)ccc2C1=O)NC12CCC(CC1)OC2 [Example 51, 2-(6-bromo-1-oxo-spiro[3H-isoquinoline-4,1′-cyclopropane]-2-yl)-N-(2-oxabicyclo[2.2.2]octan-4-yl)acetamide]
IC50 [1]: 10 to 15 µM
IC50 [2]: 9.07 µM

CC1CC(NC(=O)CN2CC3(CC3)c3cc(Br)ccc3C2=O)C1 (stereo not shown) [Example 52, 2-(6-bromo-1-oxo-spiro[3H-isoquinoline-4,1′-cyclopropane]-2-yl)-N-(3-methylcyclobutyl)acetamide]
IC50 [1]: < 10 µM
IC50 [2]: 2.08 µM

CC12CC(NC(=O)CN3CC4(CC4)c4cc(Br)ccc4C3=O)(CO1)C2 [Example 53, 2-(6-bromo-1-oxo-spiro[3H-isoquinoline-4,1′-cyclopropane]-2-yl)-N-(1-methyl-2-oxabicyclo[2.1.1]hexan-4-yl)acetamide]
IC50 [1]: < 10 µM
IC50 [2]: 7.83 µM

O=C(CN1CC2(CC2)c2cc(Br)ccc2C1=O)N[C@H]1C[C@H](C(F)(F)F)C1 [Example 54, 2-(6-bromo-1-oxo-spiro[3H-isoquinoline-4,1′-cyclopropane]-2-yl)-N-[trans-3-(trifluoromethyl)cyclobutyl]acetamide]
IC50 [1]: < 10 µM
IC50 [2]: 1.55 µM

O=C(CN1CC2(CC2)c2cc(Br)ccc2C1=O)NC1CC(O)(C(F)(F)F)C1 (stereo not drawn) [Example 55, 2-(6-bromo-1-oxo-spiro[3H-isoquinoline-4,1′-cyclopropane]-2-yl)-N-[cis-3-hydroxy-3-(trifluoromethyl)cyclobutyl]acetamide]
IC50 [1]: < 10 µM
IC50 [2]: 0.861 µM

O=C(CN1CC2(CC2)c2cc(Br)ccc2C1=O)NC12CCC(CC1)CC2 [Example 56, N-(1-bicyclo[2.2.2]octanyl)-2-(6-bromo-1-oxo-spiro[3H-isoquinoline-4,1′-cyclopropane]-2-yl)acetamide]
IC50 [1]: < 10 µM
IC50 [2]: 7.92 µM

O=C(CN1CC2(CC2)c2cc(Br)ccc2C1=O)NC12CCC(O)(CC1)CC2 [Example 57, 2-(6-bromo-1-oxo-spiro[3H-isoquinoline-4,1′-cyclopropane]-2-yl)-N-(4-hydroxy-1-bicyclo[2.2.2]octanyl)acetamide]
IC50 [1]: < 10 µM
IC50 [2]: 5.92 µM

O=C(CN1CC2(CC2)c2cc(Br)ccc2C1=O)NC1CCCC(O)C1 (stereo not shown) [Example 58, 2-(6-bromo-1-oxo-spiro[3H-isoquinoline-4,1′-cyclopropane]-2-yl)-N-(3-hydroxycyclohexyl)acetamide]
IC50 [1]: < 10 µM
IC50 [2]: 3.09 µM

CN1CC(NC(=O)CN2CC3(CC3)c3cc(Br)ccc3C2=O)CC1=O (stereo not shown) [Example 59, 2-(6-bromo-1-oxo-spiro[3H-isoquinoline-4,1′-cyclopropane]-2-yl)-N-(1-methyl-5-oxo-pyrrolidin-3-yl)acetamide]
IC50 [1]: > 15 µM
IC50 [2]: 18.3 µM

O=C(CN1CC2(CC2)c2cc(Br)ccc2C1=O)NC1CC(OC(F)F)C1 (stereo not shown) [Example 60, 2-(6-bromo-1-oxo-spiro[3H-isoquinoline-4,1′-cyclopropane]-2-yl)-N-[3-(difluoromethoxy)cyclobutyl]acetamide]
IC50 [1]: < 10 µM
IC50 [2]: 8.68 µM

O=C(CN1CC2(CC2)c2cc(Br)ccc2C1=O)NC1CC2(COC2)C1 [Example 61, 2-(6-bromo-1-oxo-spiro[3H-isoquinoline-4,1′-cyclopropane]-2-yl)-N-(2-oxaspiro[3.3]heptan-6-yl)acetamide]
IC50 [1]: < 10 µM
IC50 [2]: 2.75 µM

CCN1CC(NC(=O)CN2CC3(CC3)c3cc(Br)ccc3C2=O)CCC1=O (stereo not shown) [Example 62, 2-(6-bromo-1-oxo-spiro[3H-isoquinoline-4,1′-cyclopropane]-2-yl)-N-(1-ethyl-6-oxo-3-piperidyl)acetamide]
IC50 [1]: 10 to 15 µM
IC50 [2]: 12.1 µM

CC(C)(O)CNC(=O)CN1CC2(CC2)c2cc(Br)ccc2C1=O [Example 63, 2-(6-bromo-1-oxo-spiro[3H-isoquinoline-4,1′-cyclopropane]-2-yl)-N-(2-hydroxy-2-methyl-propyl)acetamide]
IC50 [1]: > 15 µM
IC50 [2]: 16.5 µM

O=C(CN1CC2(CC2)c2cc(Br)ccc2C1=O)N[C@H]1C[C@@H](CO)C1 [Example 64, 2-(6-bromo-1-oxo-spiro[3H-isoquinoline-4,1′-cyclopropane]-2-yl)-N-[cis-3-(hydroxymethyl)cyclobutyl]acetamide]
IC50 [1]: < 10 µM
IC50 [2]: 6.4 µM

— US20230416205A1, “COMPOUNDS, COMPOSITIONS, AND METHODS” (Denali Therapeutics Inc, priority 2020, published 2023)
